Data taken from paper PMC3855971, “Study of Possible Mechanisms Involved in the Inhibitory Effects of Coumarin Derivatives on Neutrophil Activity” (Oxidative Medicine and Cellular Longevity, 2013).

How the values were obtained:
human neutrophils = assay: Cytotoxicity by ATP liberation (luciferin-luciferase chemiluminescence); type: cell-based; conditions: 1, 10, and 100 μmol/L
Method: The cytotoxic effect of HHC and HHDC was evaluated by means of ATP liberation by the luciferin-luciferase chemiluminescence. The neutrophil suspension (30 μL; 30 000 cells/sample) and 20 μL of Tyrode's solution were incubated with 50 μL of HHC or HHDC (1–100 μmol/L) for 15 min at 37°C. Ten microliters of a mixture of luciferin (1.6 μg/sample) and luciferase (45 000 U/sample) was added, and the chemiluminescence was recorded for 60 s. In each experiment, the chemiluminescence of ATP standards (1–500 nmol/L) was measured and the concentrations of ATP in samples were calculated from the calibration curve. The total ATP content was assessed immediately after sonication of neutrophils for 10 s.

[1] = Chemiluminescence assay in cell-free system; type: biochemical; conditions: luminol, hydrogen peroxide; for EC50: HRP, 37°C, CL over 10 minutes, mean ± SEM, read-out: EC50, cell free chemiluminescence (50% inhibition of control CL)
Method: In the cell-free system, luminol, horseradish peroxidase, and hydrogen peroxide were used for chemiluminescence generation. The 200 μL samples consisted of 50 μL aliquots: HRP (2 U/mL), luminol (10 μmol/L), HHC, or HHDC solutions in the concentrations of 1, 10, or 100 μmnol/L. The reaction was initiated by adding hydrogen peroxide at the final concentration of 100 μmol/L. The chemiluminescence responses were measured for 10 minutes at 37°C in a microplate luminometer Immunotech LM-01T (Czech Republic).

PKCδ = target: T1, PKCδ (Homo sapiens, UniProt Q05655); assay: Western blot, phosphorylation of PKCδ (Thr505) in PMA stimulated neutrophils; type: cell-based; conditions: 10 and 100 μmol/L, PMA 0.15 μmol/L
T1 construct: endogenous in cells; host or cells: isolated human neutrophils
T1 sequence (Q05655 whole entry): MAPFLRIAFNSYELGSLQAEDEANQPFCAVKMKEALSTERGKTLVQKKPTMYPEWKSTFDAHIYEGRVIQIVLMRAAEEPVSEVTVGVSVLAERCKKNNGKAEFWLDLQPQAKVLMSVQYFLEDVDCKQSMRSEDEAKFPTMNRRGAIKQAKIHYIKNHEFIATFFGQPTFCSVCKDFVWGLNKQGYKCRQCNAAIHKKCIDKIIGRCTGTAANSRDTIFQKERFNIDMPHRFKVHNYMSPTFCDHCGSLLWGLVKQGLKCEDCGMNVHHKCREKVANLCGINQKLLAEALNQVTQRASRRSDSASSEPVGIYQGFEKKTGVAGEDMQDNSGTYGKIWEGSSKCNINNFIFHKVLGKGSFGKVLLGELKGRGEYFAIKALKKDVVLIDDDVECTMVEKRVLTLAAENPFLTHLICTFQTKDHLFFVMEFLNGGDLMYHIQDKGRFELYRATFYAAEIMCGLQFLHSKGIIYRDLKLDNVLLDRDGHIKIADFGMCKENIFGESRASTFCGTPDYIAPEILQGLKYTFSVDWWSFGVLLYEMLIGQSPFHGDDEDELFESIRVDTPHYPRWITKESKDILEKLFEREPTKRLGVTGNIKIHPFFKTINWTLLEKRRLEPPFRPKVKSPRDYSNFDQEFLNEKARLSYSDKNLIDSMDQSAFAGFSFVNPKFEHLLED
Method: (§1) Phosphorylation of PKC isoenzymes α, βII, and δ, as well as NADPH oxidase subunit p40^phox, was detected using the method described by Jančinová et al..
(§2) The suspension of isolated neutrophils (100 μL) containing 5 × 10^6 cells was preincubated at 37°C for 60 seconds with different concentrations of HHC or HHDC (10, 100 μmol/L) prior to addition of PMA (0.15 μmol/L). Incubation with PMA (5 min) was stopped by using a solubilisation buffer (20 mmol/L Tris-HCl, 5 mmol/L EDTA, 1% Triton, 10% glycerol, 10 mmol/L NaF, 1 mmol/L sodium orthovanadate, 208 μmol/L AEBF, 0.17 μmol/L aprotinin, 8 μmol/L bestatin, 2.8 μmol/L E-64, 4 μmol/L leupeptin, and pH 7.4). The suspension was sonicated at 4°C for […] and centrifuged at 14 000 ×g at 4°C for 5 min to remove unbroken cells. […] From the two strips taken, one was detected for PKCα, βII (area between 60 and 100 kD) and the second for detection of β-actin (30–60 kD), which represented the internal control. […]
(§3) NADPH oxidase subunit p40^phox and PKC isoenzyme δ were detected in the same blots after their washing and incubation with 10x diluted stripping buffer (Reblot Plus Mild Solution, Millipore, Temecula, CA, USA) for 15 min and washed overnight in diluent buffer (1% bovine serum albumin in Tris buffered saline). […] Autoradiogram bands were quantified using the Image J programme. […]

[2] = system: intracellular ROS production in PMA stimulated human neutrophils; assay: Intracellular chemiluminescence (luminol with superoxide dismutase and catalase) of PMA stimulated neutrophils; type: cell-based; conditions: for Effect on intracellular ROS production: 0.01–100 μmol/L, PMA stimulated; for EC50: Homo sapiens, PMA 0.05 μmol/L, 37°C, luminol-enhanced CL integrated over 1800 s, mean ± SEM, read-out: EC50, intracellular chemiluminescence (50% inhibition of control CL)
Method: (§4) The effect of HHC or HHDC (0.01, 0.1, 1, 10, and 100 μmol/L) on extra- and intracellular ROS production was measured in unstimulated and PMA (0.05 μmol/L) stimulated neutrophils (5 × 10^5/sample) by isoluminol-/luminol-enhanced chemiluminescence (CL). Extracellular CL was determined in the system containing isoluminol (5 μmol/L) and HRP (8 U/mL). Intracellular CL was measured with luminol (5 μmol/L) in the presence of the extracellular scavengers superoxide dismutase (100 U/mL) and catalase (2 000 U/mL). […] Data were based on integral values of CL over 1800 s, (RLU × s; RLU: relative light units).

[3] = system: extracellular ROS production in PMA stimulated human neutrophils; assay: Extracellular chemiluminescence (isoluminol/HRP) of PMA stimulated neutrophils; type: cell-based; conditions: for Effect on extracellular ROS production: 0.01–100 μmol/L, PMA stimulated; for EC50: Homo sapiens, PMA 0.05 μmol/L, 37°C, isoluminol-enhanced CL integrated over 1800 s, mean ± SEM, read-out: EC50, extracellular chemiluminescence (50% inhibition of control CL); for EC50 / IC50: Neutrophil; for IC50: PMA stimulated human neutrophils, read-out: IC50 of control extracellular chemiluminescence
Method: as §4

[4] = system: NADPH oxidase subunit p40^phox; assay: Western blot, phosphorylation of NADPH oxidase subunit p40phox (T154) in PMA stimulated neutrophils; type: cell-based, human; conditions: 10 and 100 μmol/L, PMA 0.15 μmol/L
Method: as §1, §2, §3

PKC = PKC activity assay (ELISA kit) in cytosol of PMA stimulated neutrophils; type: cell-based, human; conditions: for PKC activity (percentage of stimulated PMA control): 30 min incubation, PMA 0.15 μmol/L 3 min, mean ± SEM, n = 8
Method: PKC activity in the cytosol was detected by the modified method of Varga et al.. Isolated human neutrophils (5 × 10^5/mL) were incubated 30 min with HHC (1, 10, and 100 μmol/L) or HHDC (1, 10, and 100 μmol/L) at 37°C. Neutrophils were then stimulated with PMA (0.15 μmol/L, final concentration) at 37°C for 3 min. The reaction was stopped by addition of 10 vol of ice-cold PBS. After centrifugation (500 ×g, 4°C, 10 min) the cells were resuspended in sample buffer (20 mmol/L TRIS-HCl, 5 mmol/L EDTA, 1% Triton, 10% glycerol, and protease inhibitor cocktail), sonicated on ice, and centrifuged (14 000 ×g, 5 min, 4°C). The cytosolic fractions were transferred to a prechilled 1.5 mL microcentrifuge tube and stored at –70°C. Protein content of cytosol fraction was measured using Bradford Dye Reagent Detection Kit (Bio-Rad, USA). PKC activity was measured with a Nonradioactive Protein Kinase Assay kit (Assay Designs, Ann Arbor, MI, USA), which is based on a solid-phase enzyme-linked immunoabsorbent assay (ELISA), utilising a specific synthetic peptide as substrate for PKC and a polyclonal antibody recognizing the phosphorylated form of the substrate. The assay is developed with tetramethylbenzidine substrate and a colour develops in proportion to PKC phosphotransferase activity. The colour development was stopped with acid stop solution and the intensity of the colour was measured in a microplate reader at 450 nm. The data were expressed as relative kinase activity per 1 mg of protein.

[5] = set-up: method as in PMID 21187835; conditions: cited from earlier work

EC50 [1]	Effect on phosphorylation of PKCδ (PKCδ)	EC50 ([2]; Neutrophil)	IC50 ([2]; Neutrophil, PMA stimulated human neutrophils)	EC50 [3]	IC50 [3]	IC50 ([1]; horseradish peroxidase, unit inferred, read-out: IC50, chemiluminescence generated by cell-free system)	SMILES	Effect on spontaneous ATP liberation (cytotoxicity) (human neutrophils)	Effect on intracellular ROS production [2]	Effect on extracellular ROS production [3]	Effect on phosphorylation of p40phox subunit [4]	PKC activity (percentage of stimulated PMA control) (PKC; 1 μmol/L)	PKC activity (percentage of stimulated PMA control) (PKC; 10 μmol/L)	PKC activity (percentage of stimulated PMA control) (PKC; 100 μmol/L)	Effect on PKC activity (PKC; 1, 10, and 100 μmol/L, PMA stimulated)	Partition coefficient, compared to that of HHC [5]
0.59 ± 0.01 µM	did not affect phosphorylation of PKCδ	5.24 ± 0.57 µM	5.24 ± 0.57 µM	1.04 ± 0.2 µM	1.04 ± 0.2 µM		O=c1oc2cc(O)ccc2cc1-c1ccc(O)cc1 [HHC, 7-Hydroxy-3-(4′-hydroxyphenyl) coumarin]	did not increase spontaneous ATP liberation	decreased significantly intracellular ROS production	decreased significantly extracellular ROS production	failed to influence it	87.7 ± 4.2%	74.8 ± 6.3%	46.3 ± 1.8%		
2.47 ± 0.04 µM	did not affect phosphorylation of PKCδ	> 100 µM		1.01 ± 0.13 µM	1.01 ± 0.13 µM	2.47 ± 0.04 µM	O=C1Oc2cc(O)ccc2CC1c1ccc(O)cc1 (stereo not shown) [HHDC, 7-Hydroxy-3-(4′-hydroxyphenyl)-3,4-dihydrocoumarin]	did not increase spontaneous ATP liberation	slightly effective only in the highest concentration tested	decreased significantly extracellular ROS production	failed to influence it				did not significantly influence PKC activity	lower values of the partition coefficient
